Test results reported in patent publication US6448256B1, “Antibiotic prodrugs” (University of Massachusetts, priority 1999, dated 2002).
pKi: −log10 of the molar value. In brackets after ≈: the same amount, converted by molar mass. Several values for one entry are separate records, joined by “and”; a condition that tells them apart may be missing. Equal values may be shown once. Read-outs that look alike come from different tables or passages of the source.

Tests used:
S. aureus [1] = experiment: Mouse thigh infection model; assay type: in vivo, mice; conditions: ip in saline, 40 mg/kg every four hours
Source text: The mouse thigh infection model has been pioneered and used by Craig and colleagues (Craig, W. A., Redington, J. and S. C. Ebert (1991) J. Antimicr. Chemother. 27:Suppl C, 29-40; Leggett, J. E., Ebert, S., Fantin, B. and W. A. Craig (1991) Scand. J. Inf. Dis. 74:179-184). It represents a rational, flexible, cost-effective, and reproducible experimental approach for predicting the efficacy of a bacterial infection in a human patient. It is particularly useful in the present invention, because it is adaptable to the use of clinically relevant strains of Staphylococcus and Enterococcus.
Mice are made neutropenic to render them susceptible to infection with a wide variety of bacteria. […] The infected thigh of each animal is homogenized in sterile saline, and the bacterial concentration in the homogenate is determined by dilution and plating. […]
Testing can be carried out as follows. […] Treatment with the test agent and the positive control agent (vancomycin) is initiated at 2 hours post-infection, using a route (Po, ip, or sc), schedule, and dosing regimen determined by the agent's in vitro potency and specific pharmacokinetic properties.
The compounds are given by ip injection of 0.05 ml of a saline solution. […] Results are expressed as the log reduction in bacterial growth as a fraction of that in vehicle-treated animals.

[2] = tested on: S. aureus (methicillin-sensitive Smith strain); experiment: ip/ip mouse protection against lethal S. aureus infection; assay type: in vivo, mice; design: mice protected from death: dose or concentration left out as unconfirmed; conditions: for animals protected from death: 10 mg/kg, ten animals
Protocol: Step 1: Screening—Each candidate prodrug is screened for activity in an ip/ip S. aureus protection model. Candidates that display efficacy equivalent to that of HB-EMAU and HB-IMAU are selected for advanced pharmacokinetic analysis and application in the more relevant mouse thigh model of infection.
The efficacy of the propyl derivatives was tested against murine staphylococcal infection in vivo. A simple “ip/ip” system was used, in which 20 gram mice (10 each) were injected ip (intraperitoneally) with a lethal dose (2.3×10^7 CFU) of the methicillin-sensitive Smith strain of S. aureus. The mice were then immediately injected ip with the antibiotic agent as a 1:9 mixture of DMSO:peanut oil. Vancomycin was used as the positive control drug.
Both hydroxybutyl compounds were tested at 10 mg/kg in the mouse protection experiment against lethal S. aureus infection described in Example 4 above.

B. subtilis = experiment: MIC against B. subtilis; assay type: cell-based; conditions: Bacillus subtilis, Table 6; read-out: MIC B. subtilis
Protocol: (§1) To further investigate the antibacterial and/or DNA pol III inhibitory activity of various drug compounds, various ester-containing moieties N-linked to the EMAU core were produced as described in Example 1. These prodrugs were assayed for inhibition of B. subtilis DNA pol III and antibiotic activity against a number of bacteria.
(§2) The minimal inhibitory concentrations (MICs) of the four N3-substituted agents and EMAU were determined for B. subtilis (BS), methicillin-sensitive and resistant S. aureus (SA & MRSA), vancomycin-sensitive and resistant E. fecalis (EF& VREF), vancomycin-resistant E. fecium (VREF*), and E. coli (EC) as a Gram-negative control.

E. fecalis = experiment: MIC against E. fecalis; assay type: cell-based; conditions: Table 6; read-out: MIC E. fecalis
Protocol: as §1, §2

S. aureus [3] = experiment: Bactericidal activity (killing) against S. aureus; assay type: cell-based; conditions: 2, 4, and 8× MIC, killing continued for 24 hours
B. subtilis DNA pol III = B. subtilis DNA pol III (Bacillus subtilis, UniProt P13267); experiment: Inhibition of B. subtilis DNA pol III (Ki); assay type: biochemical
Protocol: as §1
The competitive inhibitor constants (Ki) of selected EMAU compounds were determined with three different pol Ills: the pol III enzyme from Bacillus subtilis (BS pol III), and the pol III enzymes of the clinically relevant pathogens, Enterococcus fecalis (EF pol III) and Staphylococcus aureus (SA pol 111).

S. aureus [4] = experiment: MIC against S. aureus (methicillin-sensitive); assay type: cell-based; conditions: Staphylococcus aureus, read-out: MIC S. aureas
Protocol: as §1, §2

Solubility in water = assay type: physicochemical; conditions: 25° C.
Source text: The prodrug 3-(L-valylbutyl)-EMAU (Val-B-EMAU, 4a) was synthesized as a hydrochloride. The structure was confirmed by NMR. The compound had high solubility in water. […] Two different synthesis methods were used.

[5] = Plasma pharmacokinetics after intravenous administration to mice; assay type: in vivo; conditions: for half-life: mouse, plasma, iv, 25 mg/kg
Protocol: (d) Elimination halfife and apparent volume of distribution. An appropriate dose of each agent (the maximum permitted by the results of the above dose/toxicity studies) is injected via the tail vein to a series of mice (e.g., 12). At specific times following injection (e.g., 10, 20, 30, 45, 90, and 150 minutes), mice (e.g., a pair) are restrained in DecapiCones and decapitated, and their blood collected individually by exsanguination into a sterile test tube.
The blood samples are centrifuged to yield clear plasma (yield: 0.4-0.6 ml per mouse). Approximately 0.2 ml of the plasma sample are used for HPLC analysis, using conditions established herein for quantitation of the compound. The individual plasma levels for each time point are averaged, and the data are analyzed to estimate Vd and half-life by established methods (Gibaldi, M. and D. Perrier. Pharmacokinetics. Marcel Dekker, Inc., New York, 1975).
Solutions of Val-B-EMAU in saline were next injected into the tail veins of mice at a dose of 25 mg/kg body weight. Animals were sacrificed at various times after dosing, and plasma was isolated and subjected to HPLC analysis.
Each value plotted in FIG. 3 represents the average of four measurements, each in a different animal.

[6] = Prodrug conversion in mouse plasma in vitro (HPLC); assay type: in vitro ADME; conditions: mouse
Protocol: The conversion rate of prodrugs can be measured by first establishing a reverse phase HPLC method for the detection of both prodrug and drug in a biological sample such as plasma or serum. A stock solution of prodrug, usually in saline, is diluted 1:5 in animal plasma or saline. […] If necessary, the sample can be thawed in a 37° C. water bath. Aliquots of the diluted sample are taken at 15, 30, 45, 60, 90, 120, and 180 minutes. Longer time points are usually needed for saline solutions because the rates of spontaneous hydrolysis are much longer than for enzyme-catalyzed hydrolysis. The aliquots are analyzed at a 1:10 dilution using HPLC, and the fraction of prodrug which has been converted at each time point calculated.
The rate of formation of the drug and the rate of decay of the prodrug had doubling and half-life times, respectively, of about 30 minutes. In contrast, the estimated half-life of Val-B-EMAU in physiological saline at 37° C. was greater then 5000 hours. The mechanism for the decomposition of Val-B-EMAU by plasma is presumed to involve esterases in the circulation.
To further define the conversion rate of Val-B-EMAU (4a), the prodrug was incubated in 80% mouse plasma.

[7] = Plasma pharmacokinetics after oral administration to mice; assay type: in vivo
Protocol: (e) Uptake from subcutaneous (sc), intraperitoneal (ip), and oral (Po) routes, Oral dosing can be performed by gavage with a small stomach tube to DecapiCone-restrained animals. […] At specific times following administration (e.g., 15, 30, 60, 90, 150 and 240 minutes), two mice are sacrificed and their plasma samples prepared and analyzed by HPLC as described above in (d). Following decapitation, the site of drug application in each animal's carcass is dissected and inspected visually for evidence of precipitation.
Each value plotted in FIG. 4 is an average of two measurement, each in a different animal.

[8] = Table 6, read-out: Ki, inhibition constant vs. B. subtilis DNA pol III

Chain of B. subtilis DNA pol III (P13267 whole entry): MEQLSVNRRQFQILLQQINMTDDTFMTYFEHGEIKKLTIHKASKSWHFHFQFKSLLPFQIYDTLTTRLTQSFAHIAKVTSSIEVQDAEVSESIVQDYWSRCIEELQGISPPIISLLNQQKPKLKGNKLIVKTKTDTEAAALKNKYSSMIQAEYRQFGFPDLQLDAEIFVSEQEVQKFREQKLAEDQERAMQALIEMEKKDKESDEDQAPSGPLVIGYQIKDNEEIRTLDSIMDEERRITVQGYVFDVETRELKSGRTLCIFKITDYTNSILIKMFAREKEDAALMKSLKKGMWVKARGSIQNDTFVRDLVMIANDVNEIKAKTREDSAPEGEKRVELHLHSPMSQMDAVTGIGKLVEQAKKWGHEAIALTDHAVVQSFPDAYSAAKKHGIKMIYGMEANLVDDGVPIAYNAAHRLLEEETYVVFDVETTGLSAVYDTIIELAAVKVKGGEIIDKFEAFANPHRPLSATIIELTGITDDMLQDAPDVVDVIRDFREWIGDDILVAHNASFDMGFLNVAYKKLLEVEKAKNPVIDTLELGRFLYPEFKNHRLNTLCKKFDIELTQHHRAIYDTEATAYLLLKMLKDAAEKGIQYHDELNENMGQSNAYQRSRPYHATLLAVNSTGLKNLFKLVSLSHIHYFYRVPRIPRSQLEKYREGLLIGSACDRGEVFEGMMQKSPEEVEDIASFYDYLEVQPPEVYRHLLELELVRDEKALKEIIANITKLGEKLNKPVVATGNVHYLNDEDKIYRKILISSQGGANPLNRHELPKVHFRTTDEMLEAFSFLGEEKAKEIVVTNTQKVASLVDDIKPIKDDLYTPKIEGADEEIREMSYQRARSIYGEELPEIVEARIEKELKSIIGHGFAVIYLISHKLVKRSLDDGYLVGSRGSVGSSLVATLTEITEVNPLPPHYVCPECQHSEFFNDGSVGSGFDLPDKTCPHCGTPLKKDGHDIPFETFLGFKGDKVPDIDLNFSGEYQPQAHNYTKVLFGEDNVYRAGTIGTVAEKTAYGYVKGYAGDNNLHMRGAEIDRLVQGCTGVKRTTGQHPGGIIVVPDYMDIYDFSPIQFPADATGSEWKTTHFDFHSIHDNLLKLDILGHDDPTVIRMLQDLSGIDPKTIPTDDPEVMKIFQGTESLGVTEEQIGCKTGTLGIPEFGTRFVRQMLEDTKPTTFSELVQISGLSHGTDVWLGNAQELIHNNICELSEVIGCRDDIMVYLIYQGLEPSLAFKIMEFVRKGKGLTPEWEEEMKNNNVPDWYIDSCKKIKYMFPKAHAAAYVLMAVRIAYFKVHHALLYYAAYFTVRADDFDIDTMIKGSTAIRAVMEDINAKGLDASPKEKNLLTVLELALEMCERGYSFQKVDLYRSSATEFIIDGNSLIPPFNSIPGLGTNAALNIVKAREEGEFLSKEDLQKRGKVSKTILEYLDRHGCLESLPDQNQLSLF

SMILES | log reduction in S. aureus proliferation compared with control thighs (S. aureus [1]) | protection of mice ([2]; 20 mg/kg, positive control) | mice protected from death ([2]; control drug, four day experiment) | MIC (B. subtilis) [µg/mL] | MIC (E. fecalis) [µg/mL] | bactericidal for S. aureus (S. aureus [3]) | pKi (B. subtilis DNA pol III; [8]) | MIC (S. aureus [4]) [µg/mL] | animals protected from death ([2]; four day experiment) | solubility (Solubility in water) [µg/mL] | time at which HB-EMAU concentration peaked ([5]; after iv Val-B-EMAU 25 mg/kg (FIG. 1)) | half-life ([5]; after iv Val-B-EMAU 25 mg/kg (FIG. 1), read-out: half life of HB-EMAU) [min] | half-life ([5]; after iv Val-B-EMAU (4a) 25 mg/Kg (FIG. 3), average of four measurements, read-out: elimination half-life of HB-EMAU) [min] | doubling time of formation of the drug [6] | area under the curve for HB-EMAU, estimated ([7]; HB-EMAU administered directly) [%] | peak concentration of HB-EMAU ([7]; mice, after oral VB-EMAU 100 mg/Kg) | plasma HB-EMAU at four hours after administration ([7]; mice, after oral Val-B-EMAU (4a) 100 mg/Kg) | time at which plasma level of HB-EMAU peaked ([7]; mice, after oral Val-B-EMAU (4a) 100 mg/Kg in physiological saline (FIG. 4)) [min] | pKi (B. subtilis DNA pol III; Table 1, read-out: Ki B. subtilis pol III)
CN[C@H](CC(C)C)C(=O)N[C@H]1C(=O)N[C@@H](CC(N)=O)C(=O)N[C@H]2C(=O)N[C@H]3C(=O)N[C@H](C(=O)N[C@H](C(=O)O)c4cc(O)cc(O)c4-c4cc3ccc4O)[C@H](O)c3ccc(c(Cl)c3)Oc3cc2cc(c3O[C@@H]2O[C@H](CO)[C@@H](O)[C@H](O)[C@H]2O[C@H]2C[C@](C)(N)[C@H](O)[C@H](C)O2)Oc2ccc(cc2Cl)[C@H]1O [vancomycin, reference compound] | 2-4 log | protected all mice | all ten mice | – | – | – | – | – | – | – | – | – | – | – | – | – | – | – | –
Cc1ccc(Nc2cc(=O)n(CCCCO)c(=O)[nH]2)cc1I [HB-IMAU] | – | – | – | < 3.1 | 6 (≈ 14.4 µM) | bactericidal | 6.66 | 6 (≈ 14.4 µM) | nine of ten animals | – | – | – | – | – | – | – | – | – | –
CCc1cc(Nc2cc(=O)n(CCCCO)c(=O)[nH]2)ccc1C [HB-EMAU] | – | – | – | < 3.1 | 6 (≈ 18.9 µM) | bactericidal | 6.74 | 6 (≈ 18.9 µM) | all ten animals | ~30 (≈ 94.5 µM) | about 20 minutes | ~43 | 15.6 | about 30 minutes | 0.1 | 11.2 μM and 3.5 μg/ml | no detectable | 60 | 6.72
